Where two headings read alike, the source gives them in different places.
What was measured:
HL60 cells = experiment: Apoptosis detection by caspase-3 activity; assay type: cell-based, human; conditions: HL60, 1 μM, 48 h
Source text: The activated caspase-3 is a marker for cell apoptosis that proteolytically cleaves and activates other caspases and intracellular targets ([Patel et al., 1996]). Caspase-3, which is activated during the early stages of apoptosis, could be measured in HL60 cells undergoing apoptosis by using fluorescein isothiocyanate (FITC)–conjugated active caspase-3 antibody.
FITC conjugated active caspase-3 antibody (BD biosciences, USA) was used to detect the active form of caspase-3 in the cells undergoing apoptosis. Cells were plated in a 6-well culture plate at a density of 0.5 × 10^6 cells and harvested after 24 and 48 h of incubation with the test compound. The collected cells were washed twice with cold 1X PBS and then resuspended in 0.5 ml of BD Cytofix/Cytoperm solution followed by a 20-min incubation on ice. After incubation, the cells were washed twice in a BD Perm/Wash buffer (1X) and were labelled with 5 µL of FITC rabbit anti-caspase-3 antibodies. The labelled cells were washed again with wash buffer and resuspended in 0.5 ml of buffer and analyzed by acquiring a minimum of 5,000 events on the FACSAria III cell analyzer and sorter.

[1] = test system: HCT116 colon cancer cell line; experiment: MTT antiproliferative assay; assay type: cell-based; conditions: Homo sapiens, HCT-116
Protocol: The compounds were screened for their anticancer activities against a variety of cancer cell lines. The cytotoxic effect of the compounds was evaluated using the sulforhodamine B (SRB) cytotoxicity assay for breast cancer line (MCF7) and prostate cancer cell line (PC3) ([Vichai and Kirtikara, 2006]; [Rana et al., 2021]) and 3-(4,5-dimethylthiazol-2-yl)-2,5-diphenyl-2H-tetrazolium bromide (MTT) assay for the colon cancer (HCT116) cell lines ([El-Huneidi et al., 2020]). The CellTiter-Blue® cell viability assay was performed on the various leukemia cell lines, HL60, NB4, and KG1a cells ([Akter et al., 2019]). The IC50 values are illustrated in Table 1.
MCF7 (breast), PC3 (prostate), and HCT116 (colon) cancer cell lines were obtained from ATCC, Manassas, VA, USA. Cells were grown in Roswell Park Memorial Institute-1640 (RPMI-1640) medium (Thermo Fisher Scientific, Inc., Waltham, MA, USA), supplemented with 10% heat inactivated fetal bovine serum (FBS), 50 units/mL of penicillin, and […] of streptomycin and maintained at 37°C in a humidified atmosphere containing 5% CO2. The cells were maintained as “monolayer culture” by serial subculturing.
The test compounds were evaluated for antiproliferative activity using the MTT viability assay against the HCT116 cell line. The cells were seeded in triplicate in 96-well plates at a density of 10 × 10^3 cells/mL in a total volume of 200 µL per well. 0.1% of DMSO was used as a vehicle control. Each well was treated with 2 µL of test compound, which had been preprepared as stock solutions in ethanol to furnish the concentration range of the study, 0.1–50 μM, and re-incubated for a further 72 h at 37°C in a humidified atmosphere containing 5% CO2. The culture medium was then removed, and the cells were washed with 100 µL of PBS, and 100 µL of MTT was added, to reach a final concentration of 1 mg/ml of MTT. The cells were incubated for 3 h in darkness at 37°C. After removal of MTT solution, solubilization was initiated through the addition of […] of DMSO, and the cells were maintained at room temperature in darkness for 20 min to ensure thorough color diffusion before reading the absorbance with a microplate reader at 570 nm. The results were expressed as percentage viability relative to vehicle control (100%). The dose–response curves were plotted, and the IC50 values (concentration of drug resulting in 50% reduction in cell survival) were obtained using the commercial software package Prism (GraphPad® Software, Inc., La Jolla, CA, USA). All the experiments were repeated in at least three independent experiments.

[2] = Stability in human liver microsomes; assay type: in vitro ADME; conditions: 37°C, t1/2
Protocol: The clearance of KIM-161 in MLM or HLM was determined at 37°C as previously described ([Yang et al., 2007]). Both MLM and HLM were obtained from Merck KGaA (Darmstadt, Germany), Cat. No. M9441 (MLM) and M0317 (HLM). The assays were conducted in triplicate in 96-well deep polypropylene plates. KIM-161 was incubated with pooled liver microsomes from male CD-1 mice (Life Technologies, Grand Island, NY), tetrasodium NADPH and magnesium chloride for 60 min at 37°C with gentle shaking. At five time points, the reaction mixture aliquots were transferred to 96-shallow well stop plates on ice containing acetonitrile with 0.1 µM propafenone. […] The standard curves for the test compound were generated using five concentrations in triplicate that were processed as above but with zero incubation time. The stop plates were centrifuged at 2000g for 10 min, and then, the supernatant aliquots were transferred to a Waters Aquity® UPLC 700 µL 96-well sample plate with cap mat (Waters, Milford, MA). The amount of the compound remaining in the supernatant was quantified by LC/MS/MS using a Waters Xevo TQ MS (electrospray positive mode) coupled to a Waters Aquity® UPLC (BEH column, C18). Propafenone was used as the internal standard. GraphPad® Prism v.5.04 was used for nonlinear fitting of time course data to generate t1/2 values.

**Q.** For `COc1ccc(/C=C2\N=C(C)N(c3ccc(CC(=O)NCc4ccccc4)cc3)C2=O)cc1` [Compound 4c, (Z)-N-Benzyl-2-(4-(4-(4-methoxybenzylidene)-2-methyl-5-oxo-4,5-dihydro-1H-imidazol-1-yl)phenyl)acetamide], which “Casp3 active %P” value (HL60 cells) is on record?
**A.** Its value is 49.94%.

**Q.** And the “increase in the cells undergoing apoptosis (active caspase-3) vs untreated” value (HL60 cells)?
**A.** Its value is about 10 fold.

**Q.** What about the IC50 ([1]; HCT116, MTT, 72 h, read-out: IC50 ± SEM HCT116) of the same molecule?
**A.** The IC50 was 294 nM.

**Q.** And the IC50 ([1]; HCT116 colon cancer, abstract, read-out: cytotoxic IC50 HCT116)?
**A.** The IC50 was 294 nM.

**Q.** What about the HLM stability [2] of the same molecule?
**A.** Its HLM stability is 22.9 min.

From PMC8766756, “Insights on Cancer Cell Inhibition, Subcellular Activities, and Kinase Profile of Phenylacetamides Pending 1H-Imidazol-5-One Variants” (Frontiers in Pharmacology, 2022)
